From patent US20220408725A1, “NEW DEFOLIANT AND APPLICATION THEREOF” (CHENGDU NEWSUN CROP SCIENCE CO., LTD., priority 2020, published 2022)

Tested on: pepper plants
Assay: Pot spray test of defoliants on pepper plants (defoliation rate and fruit abscission rate)
Assay type: in vivo
Conditions: sprayed once
Experimental: 1 Test temperature and humidity
The defoliant listed in Table 1 is diluted to a certain extent for application. See Table 2 for the active constituents and dilution factor of the defoliant.
100X, 160X and 400X dilution of the C12-C14 fatty alcohol polyoxyethylene (5) ether refers to 100X, 160X and 400X dilution of the defoliant listed in Table 1 containing an active constituent of C12-C14 fatty alcohol polyoxyethylene (5) ether. 160X+1400X dilution of the C12-C14 fatty alcohol polyoxyethylene (5) ether+40% ethephon refers to 160X dilution of the defoliant listed in Table 1 containing an active constituent of C12-C14 fatty alcohol polyoxyethylene (5) ether and mixture with 40% ethephon subject to 1400X dilution, equivalent to that the mixed solution contains 0.5% of C12-C14 fatty alcohol polyoxyethylene (5) ether and 0.029% of ethephon.
A total of 7 treatment plots (including 1 for control group, with water) are arranged for the test, each including 5 pots.
Spray method. The test reagent is prepared according to the design requirements, and then applied once to each treatment plot by uniformly spraying it onto each pot as per 100 ml/m^2 of water consumption, while ensuring consistent spray onto each treatment plot and sufficient spray to cover the whole plant.
Investigating the total number of treated leaves and fruits of each plant before application of the reagent, and 3 days, 5 days, 7 days, 20 days and 25 days after the application, calculating the defoliation rate and observing the influence on fruits.
Adding fixedly 150 ml of water to each pot each time.
According to the investigated data, calculating the defoliation rate as per equation (1), in the unit of percentage (%), rounded to two decimal places.
(1) Defoliation rate (%)=(total number of treated leaves—number of remaining leaves)/total number of treated leaves.
(2) Corrected defoliation rate (%)=(defoliation rate of the treatment plot—defoliation rate of the control group)/(1-defoliation rate of the control group)*100.
If the defoliation rate of the control group <5%, correction is not required; otherwise, the result should be corrected as per equation (2).
(3) Fruit abscission rate (%)=(total number of treated fruits—number of remaining fruits)/total number of treated fruits.
The defoliation effect on the pepper plants is analyzed through comparison of the results of the pots before and after application of the reagent and the control group.

[1] = 100X dilution of Table 1 defoliant
[2] = 160X dilution of Table 1 defoliant
[3] = 400X dilution of Table 1 defoliant

Substance | Defoliation rate 3 days after application [1] [%] | Defoliation rate 5 days after application [1] [%] | Defoliation rate 7 days after application [1] [%] | Defoliation rate 20 days after application [1] [%] | Defoliation rate 25 days after application [1] [%] | Defoliation rate 3 days after application [2] [%] | Defoliation rate 5 days after application [2] [%] | Defoliation rate 7 days after application [2] [%] | Defoliation rate 20 days after application [2] [%] | Defoliation rate 25 days after application [2] [%] | Defoliation rate 3 days after application [3] [%] | Defoliation rate 5 days after application [3] [%] | Defoliation rate 7 days after application [3] [%] | Defoliation rate 20 days after application [3] [%] | Defoliation rate 25 days after application [3] [%]
C12-C14 fatty alcohol polyoxyethylene (5) ether [Treatment 1] | 60.03 | 78.72 | 94.97 | 69.9 | 18.42 | 66.25 | 70.63 | 79.71 | 73.64 | 51.64 | −1.46 | 4.66 | 14.5 | 26.17 | 17.95
Full branched-chain C12 fatty alcohol polyoxyethylene (5) ether [Treatment 2] | 72.15 | 87.4 | 100 | 84.33 | 75.8 | 74.69 | 85.12 | 93.59 | 72.18 | 18.07 | 5.58 | 16.17 | 21.83 | 32.56 | 7.88
Isomeric C13 fatty alcohol polyoxyethylene (5) ether [Treatment 4] | 23.88 | 40.42 | 66.7 | 64.66 | 16.35 | 14.35 | 16.59 | 25.25 | 27.79 | 7.78 | −3.15 | −2.02 | 5.81 | 8.88 | −2.16
Straight-chain C12-14 fatty alcohol polyoxyethylene (5) ether [Treatment 3] | 54.46 | 68.84 | 86.02 | 69.02 | 35.12 | 38.84 | 43.16 | 64.73 | 56.79 | 35.09 | 6.99 | 10.84 | 15.88 | 27.07 | 8.36
